Measurements reported in patent publication US20120148586A1, “GLUCAGON-LIKE PROTEIN-1 RECEPTOR (GLP-1R) AGONISTS FOR TREATING AUTOIMMUNE DISORDERS” (priority 2009, published 2012).

Tests used:
[1] = system: EAE in MOG (35-55) immunized C57BL/6 mice; assay: EAE clinical score (morbidity) after MOG (35-55) immunization; type: in vivo
Experimental: EAE was induced in female C57BL/6 mice by s.c. injection of 200 μg of the encephalitogenic peptide MOG (35-55) emulsified in CFA (Difco) and supplemented with 4 mg/ml of M. tuberculosis (Difco) on experiment day 0, followed immediately and again after 48 hours by 400 ng of pertussis toxin injected i.v.
Animals were scored for morbidity as follows: 0=normal; 1=limp tail; 2=moderate hind limb weakness; 3=moderately severe hind limb weakness (animal can still walk with difficulty); 4=severe hind limb weakness (animal can move its hind limbs but cannot walk); 5=complete hind limb paralysis; and 6=death.
Another group of mice were treated on a weekly basis with 1mg/kg GAC-1 (n=10). The mice were assessed daily for clinical signs of EAE according to the following scale: 0=normal; 1=limp tail; 2=moderate hind-limb weakness; 3=moderately severe hind-limb weakness (animal can still walk); 4=severe hind-limb weakness (animal can move their hind-limbs but cannot walk); 5=complete hind limb paralysis; 6=death.
In a separate experiment, EAE was induced as described above. […] A second group of animals were treated with 3 mg/kg GAC-1 on day 0 after MOG immunization, followed by weekly treatments of 1 mg/kg GAC-1 starting on day 7 after immunization. A third group of animals were treated daily with PBS (control, n=10). Clinical scores were monitored daily following criteria described above.
(§1) At day 5 after immunization, blood samples were taken for measurement of GLP1 levels. […] To monitor disease progression, animals were scored daily for morbidity as follows: 0=normal; 1=limp tail; 2=moderate hind limb weakness; 3=moderately severe hind limb weakness (animal can still walk with difficulty); 4=severe hind limb weakness (animal can move its hind limbs but cannot walk); 5=complete hind limb paralysis; and 6=death.

GLP-1 levels = assay: blood GLP1 levels in EAE mice at day 5 after immunization; type: in vivo; details: 10 mg/kg once daily, vs methylcellulose
Excerpt: as §1

glucose and GLP-1 levels = assay: oral glucose tolerance test; type: in vivo, mice; details: vs methylcellulose
Excerpt: GLP-1 is degraded in vivo by dipeptidyl peptidase-4 (DPP-4). DPP-4 inhibitors include, for example without limitation, sitagliptin, vildagliptin, saxagliptin, linagliptin, dutogliptin, gemigliptin, alogliptin and berberine. To test whether the DPP-4 inhibitor sitagliptin can prevent glucose level increases and elevated GLP-1 levels, four groups of 12 month old male C57BI/6 mice (n=4-5) were fasted overnight and subjected to an oral glucose tolerance test the following morning. One hour prior to oral glucose challenge, test animals were orally dosed with either 1 mg/kg or 10 mg/kg sitagliptin. […] After oral glucose challenge, glucose levels were test at 20, 40, 60 and 120 minutes. Blood samples were also taken at 20 minutes after glucose challenge to check glucose and GLP-1 levels.

[2] = system: IL-17+ and IFN-γ+ cells (Th17 and Th1); assay: IL-17+ and IFN-γ+ CD4 cells in inguinal lymph nodes by FACS; type: in vivo, mice; details: inguinal lymph node; exendin-4 1 mg/kg or dexamethasone 4 mg/kg daily; day 5 or 7
thymocytes = assay: CD4, CD8 double positive thymocytes in naïve and EAE animals (Table 5); type: in vivo, mice; details: exendin-4 1 mg/kg or dexamethasone 4 mg/kg, day 6
Excerpt: EAE was induced in 8 week old C57B1/6 mice by subcutaneous injections of MOG/CFA followed by i.p. injection of pertussis toxin. […] Dexamethasone is known to cause T cell death. On day 6 after immunization, thymi were harvested. Thymocytes were isolated, stained with anti-CD4 and anti-CD8 antibodies and analyzed by flow cytometry.

[3] = system: lymphocytes, monocytes, CD4+, CD8+, CD19+ and Ter119+ cells; assay: immune cell populations in EAE animals by FACS; type: in vivo, mice; details: spleen, day 5; exendin-4 1 mg/kg or dexamethasone 4 mg/kg daily

Row | SMILES | disease score from day 18 to day 20 ([1]; 10 mg/kg once daily, vs methylcellulose) | morbidity (EAE clinical score) ([1]; once daily day 0 to day 28, exendin-4 1 mg/kg, sitagliptin 1 or 10 mg/kg, vs methylcellulose, FIG. 18) | EAE progression / disease symptoms ([1]; once daily day 0 to day 28, exendin-4 1 mg/kg, sitagliptin either 1 mg/kg or 10 mg/kg, FIG. 18) | GLP-1 levels at day 5 after immunization (GLP-1 levels) | glucose levels after oral glucose challenge (glucose and GLP-1 levels; 1 mg/kg or 10 mg/kg oral, not statistically significant by two-way ANOVA) | blood GLP-1 levels 20 minutes after oral glucose challenge (glucose and GLP-1 levels; either dose (1 mg/kg or 10 mg/kg oral)) | reduction of IL-17+ cells in EAE animals [2] [%] | % CD4, CD8 double positive cells (thymocytes; EAE mice) [%] | % CD4, CD8 double positive cells (thymocytes; Naïve mice) [%] | reduction of Ter119+ cells in EAE animals [3]
1 | N[C@@H](CC(=O)N1CCn2c(nnc2C(F)(F)F)C1)Cc1cc(F)c(F)cc1F [sitagliptin] | significantly lower | significantly reduced morbidity | trend towards attenuating disease symptoms | significantly higher GLP-1 levels | trend toward lower glucose levels | significantly increased blood GLP-1 levels |  |  |  | 
2 | C[C@@H]1C[C@H]2[C@@H]3CCC4=CC(=O)C=C[C@]4(C)[C@@]3(F)[C@@H](O)C[C@]2(C)[C@@]1(O)C(=O)CO [dexamethasone] |  |  |  |  |  |  | 50 | 1.5±0.5 | 12.4±3.3 | 20-25%
